We go through one compound from publication PMC8584730, “Bacillus subtilis ANSB168 Producing D-alanyl-D-alanine Carboxypeptidase Could Alleviate the Immune Injury and Inflammation Induced by Ochratoxin A” (International Journal of Molecular Sciences, 2021).

Structures are written as SMILES.

The target of one assay is T1, DacA (Bacillus subtilis, UniProt P08750).
T1 construct: mature form without signal peptide (forward primer encodes Met-Ala-Ser-Asp)
As to the kind of experiment: HPLC-fluorescence of OTA hydrolysis. Type of assay: biochemical. Conditions: 37 °C, optimal pH 7.0; amide bond hydrolysis to ochratoxin alpha.

For another assay, the target named is T2, DacB (Bacillus subtilis, UniProt P35150).
T2 construct: mature form without signal peptide (forward primer encodes Met-Ala-Ile-Asp-Val)
T2 sequence (P35150 28-382): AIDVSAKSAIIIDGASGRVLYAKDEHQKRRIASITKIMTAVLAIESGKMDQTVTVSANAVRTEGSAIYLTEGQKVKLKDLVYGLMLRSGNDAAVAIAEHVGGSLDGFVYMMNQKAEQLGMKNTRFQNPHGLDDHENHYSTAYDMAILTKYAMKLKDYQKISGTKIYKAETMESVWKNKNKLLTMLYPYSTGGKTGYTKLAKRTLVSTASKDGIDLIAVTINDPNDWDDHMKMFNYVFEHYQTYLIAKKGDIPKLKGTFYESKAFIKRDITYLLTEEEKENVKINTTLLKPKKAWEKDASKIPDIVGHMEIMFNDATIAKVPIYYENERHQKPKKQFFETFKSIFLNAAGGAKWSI
As to the kind of experiment: HPLC-fluorescence of OTA hydrolysis. Format: biochemical. Conditions: 37 °C, optimal pH 7.5; amide bond hydrolysis to ochratoxin alpha.

As a reminder, the Km is the substrate concentration at which the rate is half of its maximum.

T1 sequence (P08750 32-443): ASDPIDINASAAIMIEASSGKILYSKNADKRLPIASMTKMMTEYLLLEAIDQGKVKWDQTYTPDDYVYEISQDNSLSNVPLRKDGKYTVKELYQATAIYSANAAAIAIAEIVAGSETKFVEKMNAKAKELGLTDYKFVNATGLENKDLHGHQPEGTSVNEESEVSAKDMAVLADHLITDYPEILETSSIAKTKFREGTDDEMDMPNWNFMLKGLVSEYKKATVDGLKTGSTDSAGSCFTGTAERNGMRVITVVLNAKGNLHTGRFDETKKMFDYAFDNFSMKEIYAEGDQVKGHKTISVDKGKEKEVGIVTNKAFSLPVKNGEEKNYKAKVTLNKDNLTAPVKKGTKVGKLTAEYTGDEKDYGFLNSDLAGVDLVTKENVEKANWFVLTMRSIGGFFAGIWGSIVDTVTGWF

In the case of `C[C@@H]1Cc2c(Cl)cc(C(=O)N[C@@H](Cc3ccccc3)C(=O)O)c(O)c2C(=O)O1` [Ochratoxin A, 7-carboxyl-5-chloro-8-hydroxyl-3,4-dihydro-3R-methyl-isocoumarin-7-L-β-phenylalanine], the values for the Michaelis-Menten constant (Km) at DacA and on DacB were 6.79 µM and 2.82 µM, respectively.
